Test results from ChEMBL document CHEMBL1697781, “Assessment of the health effects of chemicals in humans: II. Construction of an adverse effects database for QSAR modeling” (Curr Drug Discov Technol, 2004).

What was measured:
Details in all cases: human; call rule not given here
Hepatotoxicity [1] = assay: FDA HLAED, lactate dehydrogenase (LDH) increase
Hepatotoxicity [2] = assay: FDA HLAED, serum glutamic pyruvic transaminase (SGPT) increase
Hepatotoxicity [3] = assay: FDA HLAED, gamma-glutamyl transferase (GGT) increase
Hepatotoxicity [4] = assay: FDA HLAED, liver enzyme composite activity
Hepatotoxicity [5] = assay: FDA HLAED, alkaline phosphatase increase
Hepatotoxicity [6] = assay: FDA HLAED, serum glutamic oxaloacetic transaminase (SGOT) increase
Throughout, for GGT Increase - Index Value: reference of the scale not given here.
Throughout, for LDH Increase - Index Value: reference of the scale not given here.

| SMILES | LDH Increase - Activity Score (Hepatotoxicity [1]) | LDH Increase - Index Value (Hepatotoxicity [1]) | LDH Increase - Number of Reports (Hepatotoxicity [1]) | SGPT Increase - Activity Score (Hepatotoxicity [2]) | SGPT Increase - Index Value (Hepatotoxicity [2]) | SGPT Increase - Number of Reports (Hepatotoxicity [2]) | GGT Increase - Activity Score (Hepatotoxicity [3]) | GGT Increase - Index Value (Hepatotoxicity [3]) | GGT Increase - Number of Reports (Hepatotoxicity [3]) | Composite Activity - Active (Hepatotoxicity [4]) | Composite Activity - Marginal (Hepatotoxicity [4]) | Composite Activity - Score (Hepatotoxicity [4]) | Alkaline Phosphatase Increase - Activity Score (Hepatotoxicity [5]) | Alkaline Phosphatase Increase - Index Value (Hepatotoxicity [5]) | Alkaline Phosphatase Increase - Number of Reports (Hepatotoxicity [5]) | SGOT Increase - Activity Score (Hepatotoxicity [6]) | SGOT Increase - Index Value (Hepatotoxicity [6]) | SGOT Increase - Number of Reports (Hepatotoxicity [6]) | further results |
| --- | --- | --- | --- | --- | --- | --- | --- | --- | --- | --- | --- | --- | --- | --- | --- | --- | --- | --- | --- |
| COc1cc([C@@H]2c3cc4c(cc3[C@H](O)[C@H]3COC(=O)[C@H]23)OCO4)cc(OC)c1OC [PODOFILOX] | Inactive | 0 | < 4 | Inactive | 0 | < 4 | Inactive | 0 | < 4 | 0 | 0 | Inactive | Inactive | 0 | < 4 | Inactive | 0 | < 4 |  |
| COCCc1ccc(OCC(O)CNC(C)C)cc1 (stereo unspecified) [METOPROLOL] | Inactive | 0.3 | < 4 | Inactive | 0.5 | >= 4 | Inactive | 0 | < 4 | 0 | 0 | Inactive | Inactive | 0.4 | >= 4 | Inactive | 0.5 | >= 4 |  |
| Cc1c(OCC(F)(F)F)ccnc1C[S+]([O-])c1nc2ccccc2[nH]1 (stereo unspecified) [LANSOPRAZOLE] | Inactive | 0.5 | < 4 | Inactive | 1.2 | >= 4 | Inactive | 1.1 | >= 4 | 0 | 0 | Inactive | Inactive | 0.5 | < 4 | Inactive | 0.9 | >= 4 |  |
| COCC(=O)Nc1c(I)c(C(=O)NCC(O)CO)c(I)c(C(=O)N(C)CC(O)CO)c1I (stereo unspecified) [IOPROMIDE] | Inactive | 0 | < 4 | Inactive | 0 | < 4 | Inactive | 0 | < 4 | 0 | 0 | Inactive | Inactive | 0 | < 4 | Inactive | 0 | < 4 |  |
| CC(=O)Oc1c(C)cc(OCC(O)CNC(C)C)c(C)c1C (stereo unspecified) [METIPRANOLOL] | Inactive | 0 | < 4 | Inactive | 0 | < 4 | Inactive | 0 | < 4 | 0 | 0 | Inactive | Inactive | 0 | < 4 | Inactive | 0 | < 4 |  |
| COC(=O)C1=C(C)NC(C)=C(C(=O)OC)C1c1ccccc1[N+](=O)[O-] [NIFEDIPINE] | Inactive | 0.1 | < 4 | Inactive | 0.4 | >= 4 | Inactive | 0 | < 4 | 0 | 0 | Inactive | Inactive | 0.3 | < 4 | Inactive | 0.6 | >= 4 |  |
| CNCC(O)c1ccc(OC(=O)C(C)(C)C)c(OC(=O)C(C)(C)C)c1 (stereo unspecified) [DIPIVEFRIN] | Inactive | 0 | < 4 | Inactive | 0 | < 4 | Inactive | 0 | < 4 | 0 | 0 | Inactive | Inactive | 0 | < 4 | Inactive | 0 | < 4 |  |
| CCN[C@@H](C)Cc1cccc(C(F)(F)F)c1 [DEXFENFLURAMINE] | Inactive | 0.4 | < 4 | Inactive | 0.6 | < 4 | Inactive | 0.6 | < 4 | 0 | 0 | Inactive | Inactive | 0.2 | < 4 | Inactive | 1 | >= 4 |  |
| O=C1CC2(CCCC2)CC(=O)N1CCCCN1CCN(c2ncccn2)CC1 [BUSPIRONE] | Inactive | 0.4 | < 4 | Marginally Active | 3.1 | >= 4 | Inactive | 0.6 | < 4 | 0 | 1 | Inactive | Inactive | 0.9 | >= 4 | Inactive | 2.4 | >= 4 |  |
| O=C(O)c1cn(C2CC2)c2cc(N3CCNCC3)c(F)cc2c1=O [CIPROFLOXACIN] | Inactive | 0.9 | >= 4 | Inactive | 2.1 | >= 4 | Inactive | 0.8 | >= 4 |  |  |  | Inactive | 2.3 | >= 4 | Marginally Active | 3.1 | >= 4 | Composite Activity - Active (Hepatotoxicity [4]; Liver): 0; Composite Activity - Marginal (Hepatotoxicity [4]; Liver): 1; Composite Activity - Score (Hepatotoxicity [4]; Liver): Inactive |
| FC(F)OC(Cl)C(F)(F)F (stereo unspecified) [ISOFLURANE] | Inactive | 0 | < 4 | Inactive | 0.4 | < 4 | Inactive | 0 | < 4 | 0 | 0 | Inactive | Inactive | 0.6 | < 4 | Inactive | 1 | >= 4 |  |
| CN[C@H]1CC[C@@H](c2ccc(Cl)c(Cl)c2)c2ccccc21 [SERTRALINE] | Inactive | 0.9 | >= 4 | Inactive | 2.1 | >= 4 | Inactive | 2 | >= 4 |  |  |  | Inactive | 2 | >= 4 | Inactive | 2.7 | >= 4 | Composite Activity - Active (Hepatotoxicity [4]; Liver): 0; Composite Activity - Marginal (Hepatotoxicity [4]; Liver): 0; Composite Activity - Score (Hepatotoxicity [4]; Liver): Inactive |
